In patent US8394848B2, “Compounds that modulate intracellular calcium” (Calcimedica, Inc., priority 2008, dated 2013):

Legend:
Assay type in all cases: cell-based
[1] = molecular target: T1, recombinant human STIM1 and Orai1 (HEK-293 stable cells; JR251) (Homo sapiens, UniProt Q96D31); experiment: Fluorescence-based assay of store-operated calcium entry in Orai1/STIM1 stable cells; conditions: 50% inhibition of Peak-Basal signal
T1 construct: c-myc (C); expressed in transfected cells
Experimental: A. Fluorescence-Based Assay of Store-Operated Calcium Entry in Orai1/STIM1 Stable Cells.
Cells stably expressing recombinant human STIM1 and Orai1 were generated by transfecting a human Orai1 expression plasmid (pcDNA3.1-Orai1-cmyc) into HEK-293 cells stably overexpressing human STIM1 (Roos et al. 2005 JCB 169(3): 435-445). Colonies of cells stably expressing both STIM1 and Orai1 proteins were selected and then subcloned by limiting dilution. Cells were cultured at 37° C./6% CO2 in complete medium with 10% FBS and appropriate selection markers.
The day prior to performing the assay Orai1/STIM1 stable cells were plated in 50 μL of complete medium at 90-95% confluence in a 384 well plate. Cells were grown at 37° C./6% CO2 overnight. On the day of the assay, 1.5 μM fluo-4-AM (Invitrogen) in complete medium was added to the cells, which were then incubated for 1 hour at RT. Cells were washed once in Ca^2+-free HBSS (Hank's buffered saline solution) and 35 μl of Ca^2+-free HBSS was added to each well. Test compounds were added to wells in a 10 μL Ca^2+-free HBSS solution, prepared at 4.5× the desired final concentration, and incubated for 30 minutes at RT. The initial baseline fluorescence signal was then measured with a FLIPR^384 (Molecular Devices) plate reader. Calcium entry was initiated by adding 5 μl of 10×CaCl2 (10 mM) in HBSS, and changes in cellular fluorescence were measured with the FLIPR^384 plate reader. In each well, the magnitude of the fluorescence signal as a result of calcium entry into the cell was determined by calculating the difference between the peak fluorescence signal measured after calcium addition and the initial baseline fluorescence signal (designated Peak-Basal). IC50 values were typically calculated as the concentration that inhibited 50% of the Peak-Basal signal (Table A).

[2] = system: RBL-2H3 cells; experiment: Fluorescence-based assay of store-operated calcium entry in RBL-2H3 cells; conditions: Rattus norvegicus, 50% inhibition of Upslope, thapsigargin
Experimental: B. Fluorescence-Based Assay of Store-Operated Calcium Entry in RBL-2H3Cells.
RBL-2H3 cells were obtained from ATCC and maintained in complete medium with 10% FBS at 37° C./6% CO2.
The day prior to performing the assay, RBL-2H3 cells are plated in 50 μL of complete medium in a 384 well plate. Cells are grown at 37° C./6% CO2 overnight and grow to 50-60% confluence by the next day. On the assay day, 1.5 μM Fluo-4-AM dye (Invitrogen) in complete medium is added and incubated for 1 hour at RT. Cells are washed twice in Ca^2+-free HBSS buffer and 35 μL Ca^2+-free HBSS buffer is added to each well. 10 μL of a test compound prepared in a Ca^2+-free HBSS solution at 4.5× of the desired concentration is added to a well and incubated for 5 minutes at RT. 10 μL of thapsigargin prepared in a Ca^2+-free HBSS solution at 5.5× of the desired concentration (5.5 uM) is added to each well and incubated for an additional 25 minutes. The initial baseline fluorescence signal is measured with a FLIPR^384 (Molecular Devices) plate reader. 5 μL of 12× calcium in HBSS (12 mM) is added and changes in cellular fluorescence are measured with the FLIPR^384 plate reader. In each well, the change in the fluorescent signal as a function of time due to calcium entry into the cell is determined by calculating the difference between the fluorescent signal measured 7 seconds after calcium addition and the initial baseline fluorescence signal at time zero (t=0). This parameter is designated Upslope. The IC50 value is calculated as the concentration at which 50% of the Upslope is inhibited.

[3] = system: JR251 or RBL cells; experiment: Store-operated calcium entry, either JR251 or RBL cells, or both
Summary of the method: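 FLIPR calcium-entry readout in fluo-4-loaded cells held in Ca2+-free HBSS before calcium add-back. For RBL-2H3, store depletion used thapsigargin for 25 min after a 5 min compound pre-incubation, and IC50 was based on the 7 s Upslope. For Orai1/STIM1 stable cells, compound was pre-incubated 30 min and IC50 was based on Peak-Basal.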

T1 sequence (Q96D31 whole entry): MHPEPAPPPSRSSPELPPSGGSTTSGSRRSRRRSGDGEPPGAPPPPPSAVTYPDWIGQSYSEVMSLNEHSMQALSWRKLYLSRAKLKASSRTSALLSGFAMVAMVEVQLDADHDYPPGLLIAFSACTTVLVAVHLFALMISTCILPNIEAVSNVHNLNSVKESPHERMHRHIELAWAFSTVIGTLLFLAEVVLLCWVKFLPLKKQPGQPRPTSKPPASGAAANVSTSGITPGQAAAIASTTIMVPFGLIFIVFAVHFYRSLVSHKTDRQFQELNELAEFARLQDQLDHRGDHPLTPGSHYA

Compound | IC50 [1] [µM] | IC50 [2] [µM] | IC50 [3] [µM]
COc1cc(C)c(-c2csc(NC(=O)c3cc4ccccc4o3)c2C(=O)O)c(C)c1 [N] | ≤ 0.5 | ≤ 0.5 | –
COc1cc(C)c(-c2csc(NC(=O)c3cc4ccccc4o3)c2C(=O)O)cc1C [H] | ≤ 0.5 | ≤ 0.5 | –
O=C(O)c1c(-c2ccc(Cl)cc2)csc1NC(=O)C1CCc2ccccc2C1 (stereo not shown) [K] | ≤ 0.5 | ≤ 0.5 | –
O=C(CCc1cccs1)Nc1scc(-c2ccc(Cl)cc2)c1C(=O)O [R] | ≤ 0.5 | ≤ 0.5 | –
O=C(Nc1scc(-c2ccc(Cl)cc2)c1C(=O)O)/C(F)=C/c1ccccc1Cl [U] | 1 to 10 | – | –
O=C(Nc1scc(-c2ccc(Br)cc2)c1C(=O)O)c1cn2ccccc2n1 [Z] | 1 to 10 | – | –
COc1c(F)c(F)cc(C(=O)Nc2scc(-c3ccc(Br)cc3)c2C(=O)O)c1F [L] | ≤ 0.5 | – | –
O=C(Nc1scc(-c2ccc(Br)cc2)c1C(=O)O)c1ccc(C(F)(F)F)nc1 [AA] | 1 to 10 | – | –
O=C(Nc1scc(-c2cc3cccc(O)c3o2)c1C(=O)O)c1cc2cccc(O)c2o1 [AB] | 1 to 10 | ≤ 0.5 | –
O=C(Nc1scc(-c2ccc(Br)cc2)c1C(=O)O)c1cc2ccccn2n1 [Compound I] | ≤ 0.5 | ≤ 0.5 | –
CC(Cc1ccccc1)C(=O)Nc1scc(-c2ccc(Br)cc2)c1C(=O)O (stereo not shown) [E] | ≤ 0.5 | ≤ 0.5 | –
O=C(O)c1c(-c2ccc(Cl)cc2)csc1NC(=O)C(Cl)Cc1ccccc1 (stereo not shown) [D] | ≤ 0.5 | ≤ 0.5 | –
O=C(Nc1scc(-c2ccc(Br)cc2)c1C(=O)O)OCc1ccccc1 [S] | 1 to 10 | – | –
Cc1ccc(-c2csc(NC(=O)c3nc4ccccc4o3)c2C(=O)O)cc1CO [2-(benzo[d]oxazole-2-carboxamido)-4-(3-(hydroxymethyl)-4-methylphenyl)thiophene-3-carboxylic acid] | – | – | < 10
O=C(Nc1scc(-c2cc3cc(Cl)ccc3o2)c1C(=O)O)c1cc2ccccc2o1 [2-(benzofuran-2-carboxamido)-4-(5-chlorobenzofuran-2-yl)thiophene-3-carboxylic acid] | – | – | < 10
O=C(O)c1c(-c2ccc(Br)cc2)csc1NC(=O)N1Cc2ccccc2C1 [4-(4-bromophenyl)-2-(isoindoline-2-carboxamido)thiophene-3-carboxylic acid] | – | – | < 10
N#Cc1ccc(-c2csc(NC(=O)c3ccc4snnc4c3)c2C(=O)O)cc1 [2-(benzo[d][1,2,3]thiadiazole-5-carboxamido)-4-(4-cyanophenyl)thiophene-3-carboxylic acid] | – | – | < 10
N#Cc1ccc(-c2csc(NC(=O)c3cc4sccc4s3)c2C(=O)O)cc1 [4-(4-cyanophenyl)-2-(thieno[3,2-b]thiophene-2-carboxamido)thiophene-3-carboxylic acid] | – | – | < 10
O=C(Nc1scc(-c2ccc(Br)cc2)c1C(=O)O)c1cc2occc2[nH]1 [4-(4-bromophenyl)-2-(4H-furo[3,2-b]pyrrole-5-carboxamido)thiophene-3-carboxylic acid] | – | – | < 10
O=C(CC(c1ccccc1)c1ccccc1)Nc1scc(-c2ccc(Br)cc2)c1C(=O)O [4-(4-bromophenyl)-2-(3,3-diphenylpropanamido)thiophene-3-carboxylic acid] | – | – | < 10

Continued, values first:

IC50 [1] [µM] | IC50 [2] [µM] | IC50 [3] [µM] | Compound
≤ 0.5 | ≤ 0.5 | – | O=C(Nc1scc(-c2ccc(Cl)cc2)c1C(=O)O)c1cc2sccc2s1 [J]
≤ 0.5 | ≤ 0.5 | – | O=C(Nc1scc(-c2ccc(Br)cc2)c1C(=O)O)c1nc2cccc(F)c2o1 [B]
1 to 10 | – | – | O=C(Nc1scc(-c2ccc(Cl)cc2)c1C(=O)O)c1ccc(C(F)(F)F)nc1 [M]
≤ 0.5 | ≤ 0.5 | – | Cc1ccc(-c2csc(NC(=O)c3cnc4ccccc4n3)c2C(=O)O)c(F)c1F [F]
≤ 0.5 | ≤ 0.5 | – | O=C(Nc1scc(-c2ccc(Br)cc2)c1C(=O)O)c1nc2c(F)cccc2o1 [C]
≤ 0.5 | ≤ 0.5 | – | O=C(Nc1scc(-c2ccc(Cl)cc2)c1C(=O)O)c1nc2ccccc2s1 [G]
≤ 0.5 | ≤ 0.5 | – | O=C(Nc1scc(-c2ccc(Cl)cc2)c1C(=O)O)c1ccc([N+](=O)[O-])o1 [V]
≤ 0.5 | ≤ 0.5 | – | O=C(Nc1scc(-c2ccc(Cl)cc2)c1C(=O)O)c1cc2nccnc2s1 [X]
1 to 10 | – | – | O=C(Nc1scc(-c2ccc(Cl)cc2)c1C(=O)O)c1cc2ccccc2nn1 [Y]
0.5 to 1 | – | – | O=C(Nc1scc(-c2ccc(Cl)cc2)c1C(=O)O)c1cc(-c2ccccc2)on1 [T]
≤ 0.5 | ≤ 0.5 | – | O=C(Nc1scc(-c2ccc(Cl)cc2)c1C(=O)O)c1nc(C2CC2)cs1 [W]
≤ 0.5 | ≤ 0.5 | – | O=C(Nc1scc(-c2ccc(Cl)cc2)c1C(=O)O)c1cc2ccccn2n1 [O]
≤ 0.5 | – | – | O=C(Nc1scc(-c2ccc(Cl)cc2)c1C(=O)O)c1ccc2scnc2c1 [Q]
– | – | < 10 | COc1cc(C(F)(F)F)ccc1-c1csc(NC(=O)c2nc3ccccc3o2)c1C(=O)O [2-(benzo[d]oxazole-2-carboxamido)-4-(2-methoxy-4-(trifluoromethyl)phenyl)thiophene-3-carboxylic acid]
– | – | < 10 | O=C(Nc1scc(-c2ccc(Cl)cc2F)c1C(=O)O)c1nc2cccc(F)c2s1 [4-(4-chloro-2-fluorophenyl)-2-(7-fluorobenzo[d]thiazole-2-carboxamido)thiophene-3-carboxylic acid]
– | – | < 10 | COc1cc(-c2csc(NC(=O)c3ccc4snnc4c3)c2C(=O)O)ccc1Cl [2-(benzo[d][1,2,3]thiadiazole-5-carboxamido)-4-(4-chloro-3-methoxyphenyl)thiophene-3-carboxylic acid]
– | – | < 10 | O=C(Nc1scc(-c2ccc(F)cc2F)c1C(=O)O)c1nc2ccccc2o1 [2-(benzo[d]oxazole-2-carboxamido)-4-(2,4-difluorophenyl)thiophene-3-carboxylic acid]
– | – | < 10 | Cc1ccc(-c2csc(NC(=O)c3cc4cccc(O)c4o3)c2C(=O)O)c(F)c1F [4-(2,3-difluoro-4-methylphenyl)-2-(7-hydroxybenzofuran-2-carboxamido)thiophene-3-carboxylic acid]
– | – | < 10 | O=C(Nc1scc(-c2ccc(Cl)cc2)c1C(=O)O)c1cc2c(Cl)cc(Cl)cc2[nH]1 [4-(4-chlorophenyl)-2-(4,6-dichloro-1H-indole-2-carboxamido)thiophene-3-carboxylic acid]
– | – | < 10 | O=C(O)c1c(-c2ccc(Cl)cc2)csc1NC(=O)c1csc2nnsc12 [4-(4-chlorophenyl)-2-(thieno[2,3-d][1,2,3]thiadiazole-6-carboxamido)thiophene-3-carboxylic acid]
– | – | < 10 | Cc1ccc(-c2csc(NC(=O)c3nc4ccccc4o3)c2C(=O)O)c(F)c1F [2-(benzo[d]oxazole-2-carboxamido)-4-(2,3-difluoro-4-methylphenyl)thiophene-3-carboxylic acid]
– | – | < 10 | O=C(Nc1scc(-c2ccc(Cl)cc2)c1C(=O)O)c1nc2ccccc2[nH]1 [2-(1H-benzo[d]imidazole-2-carboxamido)-4-(4-chlorophenyl)thiophene-3-carboxylic acid]
– | – | < 10 | Cc1ccc(-c2csc(NC(=O)c3nc4ccccc4o3)c2C(=O)O)cc1C [2-(benzo[d]oxazole-2-carboxamido)-4-(3,4-dimethylphenyl)thiophene-3-carboxylic acid]
– | – | < 10 | Cc1c(-c2csc(NC(=O)c3cc4ccccc4o3)c2C(=O)O)ccc(Cl)c1Cl [2-(benzofuran-2-carboxamido)-4-(3,4-dichloro-2-methylphenyl)thiophene-3-carboxylic acid]
